Results as given in US4869904A, “Sustained release drug preparation” (Nisshin Flour Milling Co., Ltd., priority 1986, dated 1989).
Counter-ions that a name gives are not always drawn.

Experiment: Dissolution and release of powder samples in water (FIG. 2)
Type: physicochemical
Conditions: alone
Procedure: The formation of an inclusion complex of a medical compound with an alkylated cyclodextrin derivative in accordance with the process described above was confirmed by various methods such as powder X-ray diffraction, dissolution behavior, scanning electron microscope analysis, differential thermal analysis (DTA) and infrared absorption (IR). Inclusion complexes were prepared using diltiazem hydrochloride as an exemplary medical compound, and the behavior of dissolution and release of diltiazem from the inclusion complex in the powder form, as well as the behavior of dissolution and release of diltiazem from compressed tablets containing the inclusion complex were determined in order to confirm the complexing reaction and to evaluate the sustained release property, respectively. Further, the inclusion complex was administered orally to rats, and changes in the plasma concentration of the medical compound were then measured. While taking the determined dissolution and release behavior of the diltiazem into parallel consideration, the achievement of the sustained release property of the inclusion complex was confirmed. It was also proven that the dissolution and release rate of the medical compound, diltiazem, could be controlled at will, by using the ethylated cyclodextrins as the host compound for formation of inclusion complexes. […]

time to dissolution in water to an extent of 100%: about 5 minutes
Structure (SMILES): COc1ccc([C@@H]2Sc3ccccc3N(CCN(C)C)C(=O)[C@@H]2OC(C)=O)cc1 [diltiazem hydrochloride]
